Test results reported in PubChem BioAssay (NCI).
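Five compound concentrations were applied to cells in 96-well plates for 48 hours; endpoints were derived by simple linear interpolation of the resulting dose-response curve. GI50 is the concentration that inhibits growth by half. TGI: concentration producing complete growth inhibition.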

Experiments:
Assay in all cases: NCI tumour cell line growth inhibition, 48 h
NCI/ADR-RES ovarian = test system: NCI/ADR-RES ovarian
SK-OV-3 ovarian = test system: SK-OV-3 ovarian
MALME-3M melanoma = test system: MALME-3M melanoma
NCI-H522 lung = test system: NCI-H522 lung
HS 578T breast = test system: HS 578T breast
HT29 colon = test system: HT29 colon
786-0 renal = test system: 786-0 renal
T-47D breast = test system: T-47D breast
HOP-92 NSCLC = test system: HOP-92 NSCLC
SK-MEL-2 melanoma = test system: SK-MEL-2 melanoma
MOLT-4 leukemia = test system: MOLT-4 leukemia
NCI-H226 lung = test system: NCI-H226 lung
ACHN renal = test system: ACHN renal
SK-MEL-5 melanoma = test system: SK-MEL-5 melanoma
DU-145 prostate = test system: DU-145 prostate
TK-10 renal = test system: TK-10 renal
SF-268 CNS = test system: SF-268 CNS
HCT-116 colon = test system: HCT-116 colon
SR leukemia = test system: SR leukemia
A498 renal = test system: A498 renal
UO-31 renal = test system: UO-31 renal
A549 NSCLC = test system: A549 NSCLC
SF-539 CNS = test system: SF-539 CNS
MDA-MB-231 breast = test system: MDA-MB-231 breast
HL-60(TB) leukemia = test system: HL-60(TB) leukemia
RXF 393 renal = test system: RXF 393 renal
LOX IMVI melanoma = test system: LOX IMVI melanoma
COLO 205 colon = test system: COLO 205 colon
OVCAR-3 ovarian = test system: OVCAR-3 ovarian

Work on CC(C)c1ccc(NC(=O)Cc2ccc(Nc3ncnc4cc(-c5cnn(CCN(C)C)c5)ccc34)cc2)cc1 yielded a GI50 (NCI/ADR-RES ovarian) greater than 10000 nM, a TGI (NCI/ADR-RES ovarian) greater than 10000 nM and a GI50 (SK-OV-3 ovarian) of 1610 nM. The TGI (SK-OV-3 ovarian) was 4810 nM, the GI50 (MALME-3M melanoma) was greater than 10000 nM and the TGI (MALME-3M melanoma) was greater than 10000 nM. It also gave a GI50 (NCI-H522 lung) of 1560 nM, a TGI (NCI-H522 lung) of 3940 nM and a GI50 (HS 578T breast) of 795 nM. For the same compound, the TGI (HS 578T breast) was 4660 nM, the GI50 (HT29 colon) was 1400 nM and the TGI (HT29 colon) was 3490 nM. The GI50 (786-0 renal) was 1630 nM, the TGI (786-0 renal) was 3960 nM and the GI50 (T-47D breast) was 1380 nM. For the same compound, the TGI (T-47D breast) was 3730 nM, the GI50 (HOP-92 NSCLC) was 3440 nM and the TGI (HOP-92 NSCLC) was greater than 10000 nM. The GI50 (SK-MEL-2 melanoma) was greater than 10000 nM, the TGI (SK-MEL-2 melanoma) was greater than 10000 nM and the GI50 (MOLT-4 leukemia) was 1430 nM. It also gave a TGI (MOLT-4 leukemia) of 4730 nM, a GI50 (NCI-H226 lung) greater than 10000 nM and a TGI (NCI-H226 lung) greater than 10000 nM. For the same compound, the GI50 (ACHN renal) was 2450 nM, the TGI (ACHN renal) was greater than 10000 nM and the GI50 (SK-MEL-5 melanoma) was greater than 10000 nM. The TGI (SK-MEL-5 melanoma) was greater than 10000 nM, the GI50 (DU-145 prostate) was 1460 nM and the TGI (DU-145 prostate) was 2830 nM. It also gave a GI50 (TK-10 renal) of 1720 nM, a TGI (TK-10 renal) of 3790 nM and a GI50 (SF-268 CNS) of 1320 nM. It also gave a TGI (SF-268 CNS) of 3090 nM, a GI50 (HCT-116 colon) of 1190 nM and a TGI (HCT-116 colon) of 2700 nM. It also gave a GI50 (SR leukemia) of 107 nM, a TGI (SR leukemia) of 2420 nM and a GI50 (A498 renal) of 128 nM. For the same compound, the TGI (A498 renal) was greater than 10000 nM, the GI50 (UO-31 renal) was 3020 nM and the TGI (UO-31 renal) was greater than 10000 nM. For the same compound, the GI50 (A549 NSCLC) was 1200 nM, the TGI (A549 NSCLC) was 4150 nM and the GI50 (SF-539 CNS) was 571 nM. It also gave a TGI (SF-539 CNS) of 2390 nM, a GI50 (MDA-MB-231 breast) of 1440 nM and a TGI (MDA-MB-231 breast) of 3140 nM. For the same compound, the GI50 (HL-60(TB) leukemia) was 2840 nM, the TGI (HL-60(TB) leukemia) was greater than 10000 nM and the GI50 (RXF 393 renal) was 1300 nM. The TGI (RXF 393 renal) was 3430 nM, the GI50 (LOX IMVI melanoma) was 1360 nM and the TGI (LOX IMVI melanoma) was 3370 nM. For the same compound, the GI50 (COLO 205 colon) was 218 nM, the TGI (COLO 205 colon) was 1830 nM and the GI50 (OVCAR-3 ovarian) was 1440 nM. For the same compound, the TGI (OVCAR-3 ovarian) was 2940 nM.
